# Results from PubChem BioAssay (NCI).
#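 GI50 is the concentration that inhibits growth by half. TGI: total growth inhibition.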
# Columns and labels:
# Experiment in all cases: NCI anticancer screen, dose series, 384-well format
# [1] = tested on: HCT-15 colon
# [2] = tested on: NCI-H460 NSCLC
# [3] = tested on: SN12C renal
# [4] = tested on: SR leukemia
# [5] = tested on: HL-60(TB) leukemia
# [6] = tested on: HT29 colon
# [7] = tested on: OVCAR-8 ovarian
# [8] = tested on: CAKI-1 renal
# [9] = tested on: M14 melanoma
# [10] = tested on: CCRF-CEM leukemia
# [11] = tested on: NCI-H522 lung
# [12] = tested on: MALME-3M melanoma
# [13] = tested on: UACC-62 melanoma
# [14] = tested on: SK-MEL-2 melanoma
# [15] = tested on: OVCAR-3 ovarian
# [16] = tested on: NCI-H23 lung
# [17] = tested on: K-562 leukemia
# [18] = tested on: UACC-257 melanoma
# [19] = tested on: IGROV1 ovarian
# [20] = tested on: RPMI-8226 leukemia
# [21] = tested on: A549 NSCLC
# [22] = tested on: NCI-H322M lung
# [23] = tested on: A498 renal
# [24] = tested on: SK-MEL-28 melanoma
# [25] = tested on: U251 glioblastoma
# [26] = tested on: KM12 colon
# [27] = tested on: TK-10 renal
# [28] = tested on: HCT-116 colon
# [29] = tested on: RXF 393 renal
# [30] = tested on: MCF7 breast
# [31] = tested on: NCI-H226 lung
# [32] = tested on: MDA-MB-231 breast
# [33] = tested on: T-47D breast
# [34] = tested on: DU-145 prostate
# [35] = tested on: SF-268 CNS
# [36] = tested on: SF-539 CNS
# [37] = tested on: NCI/ADR-RES ovarian
# [38] = tested on: UO-31 renal
# [39] = tested on: 786-0 renal
# [40] = tested on: OVCAR-4 ovarian
# [41] = tested on: SF-295 CNS
# [42] = tested on: PC-3 prostate
# [43] = tested on: MOLT-4 leukemia
# [44] = tested on: COLO 205 colon
# [45] = tested on: ACHN renal
# [46] = tested on: LOX IMVI melanoma
# [47] = tested on: SNB-19 CNS
# [48] = tested on: HOP-62 NSCLC
# [49] = tested on: MDA-MB-435 melanoma
# [50] = tested on: SK-MEL-5 melanoma
# [51] = tested on: HOP-92 NSCLC
# [52] = tested on: SW-620 colon
# [53] = tested on: OVCAR-5 ovarian
# [54] = tested on: MDA-MB-468 breast
# [55] = tested on: HCC-2998 colon
smiles,measurement,setting,value
CN[C@@H](C)C(=O)N[C@H]1CN(S(=O)(=O)c2cccc(S(=O)(=O)N3CC[C@H]4CC[C@@H](C(=O)NC(c5ccccc5)c5ccccc5)N4C(=O)[C@@H](NC(=O)[C@H](C)NC)C3)c2)CC[C@H]2CC[C@@H](C(=O)NC(c3ccccc3)c3ccccc3)N2C1=O,GI50,[1],> 100 µM
same,TGI,[1],> 100 µM
same,GI50,[2],11.2 µM
same,TGI,[2],25.5 µM
same,GI50,[3],20.8 µM
same,TGI,[3],37.3 µM
same,GI50,[4],25.3 nM
same,TGI,[4],2820 nM
same,GI50,[5],< 10 nM
same,TGI,[5],< 10 nM
same,GI50,[6],16 µM
same,TGI,[6],35.7 µM
same,GI50,[7],2240 nM
same,TGI,[7],19.3 µM
same,GI50,[8],> 100 µM
same,TGI,[8],> 100 µM
same,GI50,[9],20.3 µM
same,TGI,[9],44.9 µM
same,GI50,[10],13.3 nM
same,TGI,[10],1460 nM
same,GI50,[11],63.4 nM
same,TGI,[11],2930 nM
same,GI50,[12],< 10 nM
same,TGI,[12],33.6 nM
same,GI50,[13],13.9 µM
same,TGI,[13],27.5 µM
same,GI50,[14],< 10 nM
same,TGI,[14],< 10 nM
same,GI50,[15],2170 nM
same,TGI,[15],17.6 µM
same,GI50,[16],31.5 nM
same,TGI,[16],459 nM
same,GI50,[17],4.42 µM
same,TGI,[17],22.4 µM
same,GI50,[18],11.7 µM
same,TGI,[18],24.4 µM
same,GI50,[19],16.1 µM
same,TGI,[19],30.3 µM
same,GI50,[20],32.6 nM
same,TGI,[20],1230 nM
same,GI50,[21],46.6 µM
same,TGI,[21],> 100 µM
same,GI50,[22],16.6 µM
same,TGI,[22],30.3 µM
same,GI50,[23],35.8 µM
same,TGI,[23],> 100 µM
same,GI50,[24],12.6 µM
same,TGI,[24],25.2 µM
same,GI50,[25],12.6 µM
same,TGI,[25],25.9 µM
same,GI50,[26],12.4 µM
same,TGI,[26],24.9 µM
same,GI50,[27],44 µM
same,TGI,[27],> 100 µM
same,GI50,[28],23.7 µM
same,TGI,[28],87.5 µM
same,GI50,[29],< 10 nM
same,TGI,[29],73 nM
same,GI50,[30],1840 nM
same,TGI,[30],5.7 µM
same,GI50,[31],17.4 µM
same,TGI,[31],47.7 µM
same,GI50,[32],< 10 nM
same,TGI,[32],< 10 nM
same,GI50,[33],13.8 µM
same,TGI,[33],28 µM
same,GI50,[34],2300 nM
same,TGI,[34],16.7 µM
same,GI50,[35],13.2 µM
same,TGI,[35],26 µM
same,GI50,[36],16.6 µM
same,TGI,[36],30.2 µM
same,GI50,[37],46.1 µM
same,TGI,[37],> 100 µM
same,GI50,[38],76 µM
same,TGI,[38],> 100 µM
same,GI50,[39],23.5 µM
same,TGI,[39],62.8 µM
same,GI50,[40],< 10 nM
same,TGI,[40],< 10 nM
same,GI50,[41],11 µM
same,TGI,[41],23.6 µM
same,GI50,[42],15.5 µM
same,TGI,[42],28.9 µM
same,GI50,[43],6.56 µM
same,TGI,[43],18.6 µM
same,GI50,[44],12.5 µM
same,TGI,[44],26 µM
same,GI50,[45],> 100 µM
same,TGI,[45],> 100 µM
same,GI50,[46],13 µM
same,TGI,[46],25.7 µM
same,GI50,[47],16.6 µM
same,TGI,[47],30.2 µM
same,GI50,[48],570 nM
same,TGI,[48],4.56 µM
same,GI50,[49],47.8 nM
same,TGI,[49],16.8 µM
same,GI50,[50],110 nM
same,TGI,[50],422 nM
same,GI50,[51],242 nM
same,TGI,[51],2690 nM
same,GI50,[52],37.7 µM
same,TGI,[52],> 100 µM
same,GI50,[53],19.1 µM
same,TGI,[53],34.8 µM
same,GI50,[54],< 10 nM
same,TGI,[54],19.6 nM
same,GI50,[55],11.7 µM
same,TGI,[55],24 µM
